Measured values: patent US20030100479A1, “Gene polymorphisms and response to treatment” (priority 2001, published 2003)

What was measured:
[1] = Dose-ranging clinical trial of GW320659 for weight loss: absolute change in body weight week 0 to week 24, by genotype; type: in vivo, human; conditions: for Placebo adjusted mean absolute change in body weight / Placebo adjusted mean absolute change in weight: 15 mg dose group
Description: The present inventors determined that the genetic polymorphisms identified herein are associated with differences in phenotypic response to treatment with the neuronal monoamine reuptake inhibitor GW320659. In the present study, the genotyped subjects had been recruited from a randomized placebo-controlled study of GW320659 for the treatment of obesity, in conjunction with a mildly hypocaloric diet and brief weight management guidance. Subjects had been randomized into one of five treatment groups: placebo or GW320659 at 2.5 mg/day, 5 mg/day, 10 mg/day, or 15 mg/day; outcome measurements included weight loss over baseline weight and changes in supine heart rate, supine diastolic blood pressure, and supine systolic blood pressure.
The primary outcome measurement was the individual's absolute change from baseline body weight (weight at week 0, randomization visit) to weight after 24 weeks of treatment. Genotypes associated with at least a 5.8 kg average weight loss over the 24 week study for subjects receiving 15 mg/day GW320659 are shown in Table 2. The average weight loss in the total (non-genotyped) clinical trial of GW320659 (at the 15 mg/day dosage) was 3.7 Kg (data not shown).
Using genotyping methods as are well known in the art, genetic data were obtained from approximately 200 of more than 500 human subjects enrolled in a dose-ranging efficacy and safety study of GW320659 for weight loss (main study group; a randomized, double-blind, placebo controlled, dose-ranging clinical trial); GW320659 was used in conjunction with a mildly hypocaloric diet and brief weight management guidance. Subjects were between the ages of 18-65 years, with a Body Mass Index (BMI) of 30-40, and were not on any psychotropic medications or other anti-obesity medications. Subjects were randomized into one of five treatment groups: placebo or GW320659 at 2.5 mg/day, 5 mg/day, 10 mg/day, or 15 mg/day (oral administration). In the main study group, for the GW320659 15 mg/day dosage, average weight loss was approximately 3.7 kg (108 subjects; data not shown).
Subjects were assessed for various parameters, including absolute change in body weight from week 0 to week 24 of the study; supine heart rate, diastolic blood pressure and systolic blood pressure at multiple predetermined time-points across the study; and change in Food Craving Inventory (Total) score from week 0 to week 24.
Change in body weight was analyzed using Analysis of Variance (ANOVA); body weight at Week 0 (randomization visit) was used as the baseline weight. The absolute change from baseline in body weight at week 24 was the dependent (response) variable. The primary independent variables were treatment group and genotype. Treatment by genotype interaction was assessed with the appropriate orthogonal trend (treatment) by genotype contrasts. […] The primary model is denoted as follows:
Recursive partioning (HelixTree Software, May 1, 2001) was used to further examine the data. Due to sample size constraints, a combination of automatic and manual splits were used to best describe the underlying relationships between genotypes, treatment dose, and other demographic variables for each selected endpoint. Recursive partioning was applied to the following endpoints: change in weight, change in food craving (total score) inventory, change (Area Under the Curve (AUC) adjusted) in supine heart rate, and change (AUC adjusted) in supine diastolic blood pressure.
The multilocus genotypes from each individual were used to enumerate all possible haplotypes. These haplotypes were assigned starting frequencies. The haplotype frequencies were updated with frequencies calculated from all the possible haplotypes from each individual in the sample. This continued until the frequencies were constant from iteration to iteration.
Regression-based models were used to relate inferred haplotype probabilities for each individual with the continuous response.

dopamine reuptake = conditions: Kelley et al., J. Med. Chem. 39:347 (1996); cited from earlier work

With C[C@@H]1CO[C@@](O)(c2cc(F)cc(F)c2)[C@H](C)N1.Cl [GW320659, (2S,3S,5R)-2-(3,5-difluorophenyl)-3,5-dimethyl-2-morpholinol] the “Average weight loss, main study group” value ([1]; 15 mg/day oral, 108 subjects, data not shown) was “approximately 3.7 kg”, the “Average weight loss, total (non-genotyped) clinical trial” value ([1]; 15 mg/day, 24 weeks, not divided by genotype, data not shown) was 3.7 kg and the Average weight loss ([1]; 5HTT Del-Ins (1,2) genotype, 15 mg/day dose) was -5.2 kg. For the same compound, the “Average Weight Loss (Kg)(range)” value ([1]; 5HTT G160A genotype 2,2, 15 mg/day, 24 weeks) was −6.1 (−10.3, −3.2) Kg, the “Average Weight Loss (Kg)(range)” value ([1]; 5HTT G769T genotype 1,1, 15 mg/day, 24 weeks) was −6.0 (−9.5, −3.2) Kg and the “Average Weight Loss (Kg)(range)” value ([1]; DAT1 genotype 9,9, 15 mg/day, 24 weeks) was −7.6 (−22.1, −1.1) Kg. For the same compound, the “Average Weight Loss (Kg)(range)” value ([1]; DAT1 genotype 10,9, 15 mg/day, 24 weeks) was −6.6 (−20.4, 1.3) Kg, the “Average Weight Loss (Kg)(range)” value ([1]; NET1 C120A genotype 2,2, 15 mg/day, 24 weeks) was −5.8 (−20.4, 1.3) Kg and the “Absolute change in weight (largest for any sub-group)” value ([1]; NET1 G155A 2,2 genotype, 15 mg dose, n=4) was -9.0 kg. For the same compound, the “Average Weight Loss (Kg)(range)” value ([1]; NET1 G155A genotype 2,2, 15 mg/day, 24 weeks) was −9.0 (−20.4, −3.3) Kg, the “Mean absolute change in weight” value ([1]; NET1 T342C 2,2 genotype, 15 mg dose, n=7) was -7.1 kg and the “Weight loss compared to subjects with alternate genotypes” value ([1]; NET1 T342C (2,2) and without DRD2 C12121T (2,2), 10 mg/day or 15 mg/day) was “increased weight loss”. For the same compound, the “Placebo adjusted mean absolute change in body weight” value ([1]; NET1 T342C genotype 1,1) was -2.8 kg, the “Placebo adjusted mean absolute change in body weight” value ([1]; NET1 T342C genotype 1,2) was -3.3 kg and the “Placebo adjusted mean absolute change in body weight” value ([1]; NET1 T342C genotype 2,2) was -7.3 kg. The “Average Weight Loss (Kg)(range)” value ([1]; NET1 T342C genotype 2,2, 15 mg/day, 24 weeks) was −7.1 (−13.7, 0) Kg, the “Average Weight Loss (Kg)(range)” value ([1]; NR1 G1001C genotype 1,2, 15 mg/day, 24 weeks) was −6.0 (−13.7, −0.9) Kg and the “Placebo adjusted mean absolute change in weight” value ([1]; NR1 G6435A genotype 1,1) was -4.4 kg. For the same compound, the “Placebo adjusted mean absolute change in weight” value ([1]; NR1 G6435A genotype 1,2) was -1.9 kg, the “Placebo adjusted mean absolute change in weight” value ([1]; NR1 G6435A genotype 2,2, three placebo and four GW320659 subjects) was -10.3 kg and the “Average Weight Loss (Kg)(range)” value ([1]; NR1 G6435A genotype 2,2, 15 mg/day, 24 weeks) was −6.9 (−9.2, −3.3) Kg. For the same compound, the “Weight Loss at 24 weeks, Mean” value ([1]; haplotype 1,1 NET1G155A NET1T342C, All Ethnicities, 10-15 mg (Table 4)) was −2.007, the “Weight Loss at 24 weeks, Mean” value ([1]; haplotype 1,1 NET1G155A NET1T342C, Caucasians, 10-15 mg (Table 5)) was −1.739 and the “Weight Loss at 24 weeks, Mean” value ([1]; haplotype 1,2 NET1G155A NET1T342C, All Ethnicities, 10-15 mg (Table 4)) was −4.325. For the same compound, the “Weight Loss at 24 weeks, Mean” value ([1]; haplotype 1,2 NET1G155A NET1T342C, Caucasians, 10-15 mg (Table 5)) was −4.416, the “Weight Loss at 24 weeks, Mean” value ([1]; haplotype 2,1 NET1G155A NET1T342C, All Ethnicities, 10-15 mg (Table 4)) was −3.886 and the “Weight Loss at 24 weeks, Mean” value ([1]; haplotype 2,1 NET1G155A NET1T342C, Caucasians, 10-15 mg (Table 5)) was −2.9211. The “Weight Loss at 24 weeks, Mean” value ([1]; haplotype 2,2 NET1G155A NET1T342C, All Ethnicities, 10-15 mg (Table 4)) was −9.99, the “Weight Loss at 24 weeks, Mean” value ([1]; haplotype 2,2 NET1G155A NET1T342C, Caucasians, 10-15 mg (Table 5)) was −9.413 and the Mean weight loss ([1]; subgroup 2,2 for NET1T342C and/or NET1G155A and/or NR1G6435A, 10 mg/day+15 mg/day combined, 24 weeks) was 6.05 kg. For the same compound, the “Change in weight at Week 24” value ([1]; subgroup 2/2 NET1T342C and/or 2/2 NET1G155A and/or 2/2 NR1G6435A, 10 mg/day+15 mg/day, 26 subjects) was -6.05 kg, the “Mean weight loss at 24 weeks” value ([1]; subgroup 2/2 for NET1T342C and not 2/2 for DRD2C12121T) was at least 6 kg and the Mean weight loss ([1]; subgroup DAT1VNTR 10,9 or 9,9, 15 mg/day, 24 weeks) was 6.89 kg. The “Inhibition of dopamine reuptake” value (dopamine reuptake) was “weaker reuptake inhibition effects on dopamine reuptake”.
